Test results from patent US9822112B2, “Heteroarylene-bridged benzodiazepine dimers, conjugates thereof, and methods of making and using” (priority 2015, dated 2017).

How the values were obtained:
Test in all cases: Cytotoxic activity of dimers (ATP luminescence or MTS cell proliferation assay)
Type in all cases: cell-based
[1] = system: N87 gastric cancer cell line; conditions: N87 cells; free dimer; 72 h incubation
Method: (§1) The cytotoxic activity of dimers of this invention can be tested against various cancer cell lines, such as H226 lung cancer, DMS 79 lung cancer, H187 lung cancer, N87 gastric cancer, 786-O renal cancer, and/or OVCAR3 ovarian cancer cell lines. The ability of dimers to inhibit cell proliferation can be measured by either an ATP luminescence assay or an MTS cell proliferation assay.
(§2) This is a general procedure for an ATP luminescence assay: Cells are seeded at 1×10^3 cells/well in 96-well plates for 3 h for ATP CellTiterGlo™ assays, respectively. Serial dilutions (1:3) of compounds are added to the wells. Plates are allowed to incubate for 72 h. A CellTiterGlo™ cell viability kit from Promega is used to measure ATP content of cells treated with test compounds following manufacturer's instruction. A decrease in the ATP content is a measure of decrease in cellular viability. The EC50 value—the concentration at which an agent reduces cell viability by 50% of the maximum effect—can be calculated using PRISM™ software, version 5.0 (GraphPad Software, La Jolla, Calif., USA).
(§3) The MTS cell proliferation assay was performed as follows: CellTiter 96 Aqueous Non-Radioactive Cell proliferation Kit from Promega (Madison, Wis.) is used to determine the number of viable cells in cell proliferation assay. Tumor cells are plated at certain seeding densities in sterile 384-well black clear bottom Matrix plates at 40 μL per well and incubated overnight at 37° C. in 5% CO2 before assaying. On the next day, one set of cell plates (10 plates) is used to determine time zero cell density, and 3-(4,5-dimethylthiazol-2-yl)-5-(3-carboxymethoxyphenyl)-2-(4-sulfophenyl)-2H-tetrazolium is added at 4 μL/well into 10 plates followed by incubation at 37° C. in 5% CO2 for three hours. This tetrazolium reagent is bioreduced by […] to form a formazan product which is soluble in aqueous solution. Absorbance at 490 nm is measured on an Envision reader (Perkin Elmer, Boston, Mass.). On the same day, compounds are added into remaining cell plates (T72 plates) and incubated at 37° C. in 5% CO2. After 72 hours, 4 μL MTS reagents are then added into those cell plates. The plates are further incubated at 37° C. in 5% CO2 for three hours and the absorbance values at A490 were measured on an Envision reader.

[2] = system: DMS 79 lung cancer cell line; conditions: Homo sapiens; DMS 79 cells; free dimer; 72 h incubation
Method: as §1, §2, §3

[3] = system: H187 lung cancer cell line; conditions: Homo sapiens, NCI-H187; H187 cells; free dimer; 72 h incubation
Method: as §1, §2, §3

SMILES	IC50 [1]	IC50 [2]	IC50 [3]
COc1cc2c(cc1OCc1cccc(COc3cc4c(cc3OC)C(=O)N3Cc5cccnc5C[C@@H]3C=N4)n1)N=C[C@@H]1Cc3ccccc3CN1C2=O [Dimer 100]	0.1 nM	–	–
COc1cc2c(cc1OCc1cccc(COc3cc4c(cc3OC)C(=O)N3Cc5ccccc5C[C@H]3C=N4)n1)N=C[C@@H]1Cc3ccccc3CN1C2=O [IIa-01]	0.02 nM	0.001 nM	0.001 nM
COc1cc2c(cc1OCc1cccc(COc3cc4c(cc3OC)C(=O)N3Cc5cc(N)ccc5C[C@H]3C=N4)n1)N=C[C@@H]1Cc3ccccc3CN1C2=O [IIa-03]	0.03 nM	0.002 nM	0.002 nM
COc1cc2c(cc1OCc1cncc(COc3cc4c(cc3OC)C(=O)N3Cc5ccccc5C[C@H]3C=N4)c1)N=C[C@@H]1Cc3ccccc3CN1C2=O [IIa-06]	0.14 nM	–	–
COc1cc2c(cc1OCc1cc(COc3cc4c(cc3OC)C(=O)N3Cc5ccccc5C[C@H]3C=N4)c3ccccc3n1)N=C[C@@H]1Cc3ccccc3CN1C2=O [IIa-07]	0.25 nM	–	–
COc1cc2c(cc1OCc1cc(CO)cc(COc3cc4c(cc3OC)C(=O)N3Cc5ccccc5C[C@H]3C=N4)n1)N=C[C@@H]1Cc3ccccc3CN1C2=O [IIa-08]	2.71 nM	–	–
COc1cc2c(cc1OCc1cc(O)cc(COc3cc4c(cc3OC)C(=O)N3Cc5ccccc5C[C@H]3C=N4)n1)N=C[C@@H]1Cc3ccccc3CN1C2=O [IIa-11]	4.92 nM	–	–
COc1cc2c(cc1OCc1cc(Cl)cc(COc3cc4c(cc3OC)C(=O)N3Cc5ccccc5C[C@H]3C=N4)n1)N=C[C@@H]1Cc3ccccc3CN1C2=O [IIa-13]	0.03 nM	–	–
COc1cc2c(cc1OCc1cccc(COc3cc4c(cc3OC)C(=O)N3Cc5ccccc5C[C@H]3CN4)n1)NC[C@@H]1Cc3ccccc3CN1C2=O [IIa-15]	2.88 nM	–	–
COc1cc2c(cc1OCc1cccc(COc3cc4c(cc3OC)C(=O)N3Cc5cccnc5C[C@H]3C=N4)n1)N=C[C@@H]1Cc3ccccc3CN1C2=O [IIa-16]	0.08 nM	–	–
